In patent US20060264388A1, “Method for treating liver cancer by intrahepatic administration of nemorubicin” (priority 2003, published 2006):

How the values were obtained:
[1] = test system: patients with liver cancer; assay: Hematological toxicity - Platelets, worst CTC Grade by cycle, intrahepatic artery nemorubicin q8wk vs q6wk; type: in vivo, human
Method: (§1) The objective of the study was to shorten the time interval between treatment administrations from every 8 weeks (q8wk) of the protocol as reported in WO 00/15203 to every 6 weeks (q6wk). This was done in the attempt of improving the therapeutic potential of nemorubicin treatment through an increase of the dose intensity of the therapy, simultaneously safeguarding patient safety.
(§2) Overall, 13 patients were treated with the q8wk schedule (total 25 cycles administered; doses ranged from 200 to 800 mcg/m^2), and 11 patients were treated with the q6wk schedule (total 32 cycles administered; doses were 200 and 600 mcg/m^2).
(§3) The NCI-Common Tosicity Criteria grading system (CTC Grade), Version 2.0, was used to report toxicities.
(§4) A slight cumulative effect (i.e., increase in frequency but not in severity) was observed after repeated cycles for leucopenia and neutropenia (Tables 2 and 3), mainly with the q8wk schedule.

[2] = test system: patients with liver cancer; assay: Hematological toxicity - Leucocytes, worst CTC Grade by cycle, intrahepatic artery nemorubicin q8wk vs q6wk; type: in vivo, human
Method: as §1, §2, §3, §4

[3] = test system: tumor cells resistant to anthracyclines and presenting the mdr phenotype; details: cited from earlier work
[4] = 200 mcg/m^2 q8wk, All cycles, 5 evaluable cycles
[5] = 200 mcg/m^2 q8wk, Cycle 1, 3 evaluable cycles
[6] = 200 mcg/m^2 q8wk, Cycles > 1, 2 evaluable cycles
[7] = 400 mcg/m^2 q8wk, All cycles, 4 evaluable cycles
[8] = 400 mcg/m^2 q8wk, Cycle 1, 3 evaluable cycles
[9] = 600 mcg/m^2 q6wk, All cycles, 18 evaluable cycles
[10] = 600 mcg/m^2 q6wk, Cycle 1, 6 evaluable cycles
[11] = 600 mcg/m^2 q6wk, Cycles > 1, 12 evaluable cycles
[12] = 600 mcg/m^2 q8wk, All cycles, 8 evaluable cycles
[13] = 600 mcg/m^2 q8wk, Cycle 1, 4 evaluable cycles
[14] = 600 mcg/m^2 q8wk, Cycles > 1, 4 evaluable cycles
[15] = 800 mcg/m^2 q8wk, All cycles, 3 evaluable cycles
[16] = 800 mcg/m^2 q8wk, Cycle 1, 3 evaluable cycles
[17] = 200 mcg/m^2 q6wk, All cycles, 11 evaluable cycles
[18] = 200 mcg/m^2 q6wk, Cycles > 1, 6 evaluable cycles
[19] = 800 mcg/m^2 q8wk, All cycles, 4 evaluable cycles
[20] = 800 mcg/m^2 q8wk, Cycles > 1, 1 evaluable cycle

## COc1cccc2c1C(=O)c1c(O)c3c(c(O)c1C2=O)C[C@@](O)(C(=O)CO)C[C@@H]3O[C@H]1C[C@H](N2CCO[C@H](OC)C2)[C@H](O)[C@H](C)O1.Cl [nemorubicin, 3′desamino-3′[2(S)methoxy-4-morpholinyl]doxorubicin-hydrochloride]
[1]; [4]
  Platelets, worst CTC Grade by cycle: All Grades (%): 5 (100%) (%)
  Platelets, worst CTC Grade by cycle: Grade 1-2 (%): 5 (100%) (%)
[1]; [5]
  Platelets, worst CTC Grade by cycle: All Grades (%): 3 (100%) (%)
  Platelets, worst CTC Grade by cycle: Grade 1-2 (%): 3 (100%) (%)
[1]; [6]
  Platelets, worst CTC Grade by cycle: All Grades (%): 2 (100%) (%)
  Platelets, worst CTC Grade by cycle: Grade 1-2 (%): 2 (100%) (%)
[1]; [7]
  Platelets, worst CTC Grade by cycle: All Grades (%): 1 (25%) (%)
  Platelets, worst CTC Grade by cycle: Grade 1-2 (%): 1 (25%) (%)
[1]; [8]
  Platelets, worst CTC Grade by cycle: All Grades (%): 1 (33%) (%)
  Platelets, worst CTC Grade by cycle: Grade 1-2 (%): 1 (33%) (%)
[1]; [9]
  Platelets, worst CTC Grade by cycle: All Grades (%): 17 (94%) (%)
  Platelets, worst CTC Grade by cycle: Grade 1-2 (%): 17 (94%) (%)
[1]; [10]
  Platelets, worst CTC Grade by cycle: All Grades (%): 6 (100%) (%)
  Platelets, worst CTC Grade by cycle: Grade 1-2 (%): 6 (100%) (%)
[1]; [11]
  Platelets, worst CTC Grade by cycle: All Grades (%): 11 (92%) (%)
  Platelets, worst CTC Grade by cycle: Grade 1-2 (%): 11 (92%) (%)
[1]; [12]
  Platelets, worst CTC Grade by cycle: All Grades (%): 8 (100%) (%)
  Platelets, worst CTC Grade by cycle: Grade 1-2 (%): 7 (87%) (%)
  Platelets, worst CTC Grade by cycle: Grade 3 (%): 1 (12%) (%)
[1]; [13]
  Platelets, worst CTC Grade by cycle: All Grades (%): 4 (100%) (%)
  Platelets, worst CTC Grade by cycle: Grade 1-2 (%): 4 (100%) (%)
[1]; [14]
  Platelets, worst CTC Grade by cycle: All Grades (%): 4 (100%) (%)
  Platelets, worst CTC Grade by cycle: Grade 1-2 (%): 3 (75%) (%)
  Platelets, worst CTC Grade by cycle: Grade 3 (%): 1 (25%) (%)
[1]; [15]
  Platelets, worst CTC Grade by cycle: All Grades (%): 2 (67%) (%)
  Platelets, worst CTC Grade by cycle: Grade 1-2 (%): 2 (67%) (%)
[1]; [16]
  Platelets, worst CTC Grade by cycle: All Grades (%): 2 (67%) (%)
  Platelets, worst CTC Grade by cycle: Grade 1-2 (%): 2 (67%) (%)
[1]; only one patient treated at 600 mcg/m^2 q8wk after repeated cycles
  thrombocytopenia, maximum severity (CTC Grade): Grade 3
[2]; [17]
  Leucocytes, worst CTC Grade by cycle: All Grades (%): 4 (36%) (%)
  Leucocytes, worst CTC Grade by cycle: Grade 1-2 (%): 3 (27%) (%)
[2]; 200 mcg/m^2 q6wk, Cycle 1, 5 evaluable cycles
  Leucocytes, worst CTC Grade by cycle: All Grades (%): 1 (20%) (%)
[2]; [18]
  Leucocytes, worst CTC Grade by cycle: All Grades (%): 3 (50%) (%)
  Leucocytes, worst CTC Grade by cycle: Grade 1-2 (%): 3 (50%) (%)
[2]; [4]
  Leucocytes, worst CTC Grade by cycle: All Grades (%): 4 (80%) (%)
  Leucocytes, worst CTC Grade by cycle: Grade 1-2 (%): 4 (80%) (%)
[2]; [5]
  Leucocytes, worst CTC Grade by cycle: All Grades (%): 2 (67%) (%)
  Leucocytes, worst CTC Grade by cycle: Grade 1-2 (%): 2 (67%) (%)
[2]; [6]
  Leucocytes, worst CTC Grade by cycle: All Grades (%): 2 (100%) (%)
  Leucocytes, worst CTC Grade by cycle: Grade 1-2 (%): 2 (100%) (%)
[2]; [7]
  Leucocytes, worst CTC Grade by cycle: All Grades (%): 1 (25%) (%)
  Leucocytes, worst CTC Grade by cycle: Grade 1-2 (%): 1 (25%) (%)
[2]; [8]
  Leucocytes, worst CTC Grade by cycle: All Grades (%): 1 (33%) (%)
  Leucocytes, worst CTC Grade by cycle: Grade 1-2 (%): 1 (33%) (%)
[2]; [9]
  Leucocytes, worst CTC Grade by cycle: All Grades (%): 8 (44%) (%)
  Leucocytes, worst CTC Grade by cycle: Grade 1-2 (%): 8 (44%) (%)
[2]; [10]
  Leucocytes, worst CTC Grade by cycle: All Grades (%): 2 (33%) (%)
  Leucocytes, worst CTC Grade by cycle: Grade 1-2 (%): 2 (33%) (%)
[2]; [11]
  Leucocytes, worst CTC Grade by cycle: All Grades (%): 6 (50%) (%)
  Leucocytes, worst CTC Grade by cycle: Grade 1-2 (%): 6 (50%) (%)
[2]; [12]
  Leucocytes, worst CTC Grade by cycle: All Grades (%): 7 (87%) (%)
  Leucocytes, worst CTC Grade by cycle: Grade 1-2 (%): 7 (87%) (%)
[2]; [13]
  Leucocytes, worst CTC Grade by cycle: All Grades (%): 3 (75%) (%)
  Leucocytes, worst CTC Grade by cycle: Grade 1-2 (%): 3 (75%) (%)
[2]; [14]
  Leucocytes, worst CTC Grade by cycle: All Grades (%): 4 (100%) (%)
  Leucocytes, worst CTC Grade by cycle: Grade 1-2 (%): 4 (100%) (%)
[2]; [19]
  Leucocytes, worst CTC Grade by cycle: All Grades (%): 3 (75%) (%)
  Leucocytes, worst CTC Grade by cycle: Grade 1-2 (%): 3 (75%) (%)
[2]; [16]
  Leucocytes, worst CTC Grade by cycle: All Grades (%): 2 (67%) (%)
  Leucocytes, worst CTC Grade by cycle: Grade 1-2 (%): 2 (67%) (%)
[2]; [20]
  Leucocytes, worst CTC Grade by cycle: All Grades (%): 1 (100%) (%)
  Leucocytes, worst CTC Grade by cycle: Grade 1-2 (%): 1 (100%) (%)
[3]
  activity in vitro and in vivo: active
